Test results as given in ChEMBL document CHEMBL3751663, “Design and Synthesis of a Focused Library of Diamino Triazines as Potential Mycobacterium tuberculosis DHFR Inhibitors” (ACS Med Chem Lett, 2015).
pIC50: −log10 of the molar value. In brackets after ≈: the same amount, converted by molar mass.

System: Escherichia coli
Experiment: Antimicrobial activity against Escherichia coli
Assay type: functional
Details: not given

SMILES	MIC
Cc1ccc(Oc2ccc(-c3nc(N)nc(N)n3)cc2)cc1	426 µM (≈ 125 µg/mL)
Nc1nc(N)nc(-c2ccc(Oc3ccccc3)cc2)n1	448 µM (≈ 125 µg/mL)
Nc1nc(N)nc(-c2ccc(Sc3ccccc3)cc2)n1	423 µM (≈ 125 µg/mL)
Nc1nc(N)nc(-c2ccc(Oc3ccc(F)cc3)cc2)n1	420 µM (≈ 125 µg/mL)
Nc1nc(N)nc(-c2ccc(Oc3ccc(Cl)cc3)cc2)n1	398 µM (≈ 125 µg/mL)
Cc1cccc(C)c1Oc1ccc(-c2nc(N)nc(N)n2)cc1	407 µM (≈ 125 µg/mL)
Cc1cccc(Oc2ccc(-c3nc(N)nc(N)n3)cc2)c1C	407 µM (≈ 125 µg/mL)
COc1ccc(Oc2ccc(-c3nc(N)nc(N)n3)cc2)cc1	404 µM (≈ 125 µg/mL)
Cc1cc(Oc2ccc(-c3nc(N)nc(N)n3)cc2)ccc1Cl	381 µM (≈ 125 µg/mL)
Cc1cccc(Oc2ccc(-c3nc(N)nc(N)n3)cc2)c1	426 µM (≈ 125 µg/mL)
Cc1cc(Oc2ccc(-c3nc(N)nc(N)n3)cc2)cc(C)c1Cl	366 µM (≈ 125 µg/mL)
Cc1cc(Cl)ccc1Oc1ccc(-c2nc(N)nc(N)n2)cc1	381 µM (≈ 125 µg/mL)
CC(C)(C)c1ccc(Oc2ccc(-c3nc(N)nc(N)n3)cc2)cc1	373 µM (≈ 125 µg/mL)
Nc1nc(N)nc(-c2ccc(Oc3ccc(Br)cc3)cc2)n1	349 µM (≈ 125 µg/mL)
Nc1nc(N)nc(-c2ccc(Oc3ccc(Cl)cc3Cl)cc2)n1	359 µM (≈ 125 µg/mL)
Nc1nc(N)nc(-c2ccc(Oc3ccccc3Cl)cc2)n1	398 µM (≈ 125 µg/mL)

Target: T1, Dihydrofolate reductase (Homo sapiens, UniProt P00374)
T1 sequence (P00374 whole entry): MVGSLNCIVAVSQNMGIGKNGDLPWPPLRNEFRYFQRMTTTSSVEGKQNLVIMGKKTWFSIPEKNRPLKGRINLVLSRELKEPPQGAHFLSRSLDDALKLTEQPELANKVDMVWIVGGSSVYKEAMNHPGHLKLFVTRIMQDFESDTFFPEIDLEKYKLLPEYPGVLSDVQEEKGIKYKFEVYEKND
Experiment: Inhibition of human DHFR using 45 uM DHF as substrate by spectrophotometry
Details: not given

SMILES	pIC50
Cc1cccc(Oc2ccc(-c3nc(N)nc(N)n3)cc2)c1C	4.38

System: Mycobacterium tuberculosis
Experiment: Antimycobacterium activity against Mycobacterium tuberculosis H37Ra at dormant stage at 10 ug/ml
Assay type: functional
Details: not given

SMILES	inhibition at 10 µg/mL
Nc1nc(N)nc(-c2ccc(Oc3ccccc3)cc2)n1	19.4%
Nc1nc(N)nc(-c2ccc(Sc3ccccc3)cc2)n1	11.7%
Nc1nc(N)nc(-c2ccc(Oc3ccc(F)cc3)cc2)n1	4.98%
Nc1nc(N)nc(-c2ccc(Oc3ccc(Cl)cc3)cc2)n1	81.1%
Cc1cccc(C)c1Oc1ccc(-c2nc(N)nc(N)n2)cc1	96.9%
Cc1cccc(Oc2ccc(-c3nc(N)nc(N)n3)cc2)c1C	16.1%
COc1ccc(Oc2ccc(-c3nc(N)nc(N)n3)cc2)cc1	37.5%
Cc1cc(Oc2ccc(-c3nc(N)nc(N)n3)cc2)ccc1Cl	7.27%
Cc1cccc(Oc2ccc(-c3nc(N)nc(N)n3)cc2)c1	15%
Cc1cc(Oc2ccc(-c3nc(N)nc(N)n3)cc2)cc(C)c1Cl	14.5%
Cc1cc(Cl)ccc1Oc1ccc(-c2nc(N)nc(N)n2)cc1	87.2%
CC(C)(C)c1ccc(Oc2ccc(-c3nc(N)nc(N)n3)cc2)cc1	42.2%
Nc1nc(N)nc(-c2ccc(Oc3ccc(Br)cc3)cc2)n1	83%
Nc1nc(N)nc(-c2ccc(Oc3ccc(Cl)cc3Cl)cc2)n1	93.6%
Nc1nc(N)nc(-c2ccc(Oc3ccccc3Cl)cc2)n1	27.6%

System: A549
Experiment: Cytotoxicity against human A549 cells
Assay type: cell-based
Details: not given

SMILES	Activity
Cc1ccc(Oc2ccc(-c3nc(N)nc(N)n3)cc2)cc1	Non-toxic
Nc1nc(N)nc(-c2ccc(Oc3ccccc3)cc2)n1	Non-toxic
Nc1nc(N)nc(-c2ccc(Sc3ccccc3)cc2)n1	Non-toxic
Nc1nc(N)nc(-c2ccc(Oc3ccc(F)cc3)cc2)n1	Non-toxic
Nc1nc(N)nc(-c2ccc(Oc3ccc(Cl)cc3)cc2)n1	Non-toxic
Cc1cccc(C)c1Oc1ccc(-c2nc(N)nc(N)n2)cc1	Non-toxic
Cc1cccc(Oc2ccc(-c3nc(N)nc(N)n3)cc2)c1C	Non-toxic
COc1ccc(Oc2ccc(-c3nc(N)nc(N)n3)cc2)cc1	Non-toxic
Cc1cc(Oc2ccc(-c3nc(N)nc(N)n3)cc2)ccc1Cl	Non-toxic
Cc1cccc(Oc2ccc(-c3nc(N)nc(N)n3)cc2)c1	Non-toxic
Cc1cc(Oc2ccc(-c3nc(N)nc(N)n3)cc2)cc(C)c1Cl	Non-toxic
Cc1cc(Cl)ccc1Oc1ccc(-c2nc(N)nc(N)n2)cc1	Non-toxic
CC(C)(C)c1ccc(Oc2ccc(-c3nc(N)nc(N)n3)cc2)cc1	Non-toxic
Nc1nc(N)nc(-c2ccc(Oc3ccc(Br)cc3)cc2)n1	Non-toxic
Nc1nc(N)nc(-c2ccc(Oc3ccc(Cl)cc3Cl)cc2)n1	Non-toxic
Nc1nc(N)nc(-c2ccc(Oc3ccccc3Cl)cc2)n1	Non-toxic

System: Staphylococcus aureus
Experiment: Antimicrobial activity against Staphylococcus aureus
Assay type: functional
Details: not given

SMILES	MIC
Cc1ccc(Oc2ccc(-c3nc(N)nc(N)n3)cc2)cc1	426 µM (≈ 125 µg/mL)
Nc1nc(N)nc(-c2ccc(Oc3ccccc3)cc2)n1	448 µM (≈ 125 µg/mL)
Nc1nc(N)nc(-c2ccc(Sc3ccccc3)cc2)n1	423 µM (≈ 125 µg/mL)
Nc1nc(N)nc(-c2ccc(Oc3ccc(F)cc3)cc2)n1	420 µM (≈ 125 µg/mL)
Nc1nc(N)nc(-c2ccc(Oc3ccc(Cl)cc3)cc2)n1	398 µM (≈ 125 µg/mL)
Cc1cccc(C)c1Oc1ccc(-c2nc(N)nc(N)n2)cc1	407 µM (≈ 125 µg/mL)
Cc1cccc(Oc2ccc(-c3nc(N)nc(N)n3)cc2)c1C	407 µM (≈ 125 µg/mL)
COc1ccc(Oc2ccc(-c3nc(N)nc(N)n3)cc2)cc1	404 µM (≈ 125 µg/mL)
Cc1cc(Oc2ccc(-c3nc(N)nc(N)n3)cc2)ccc1Cl	381 µM (≈ 125 µg/mL)
Cc1cccc(Oc2ccc(-c3nc(N)nc(N)n3)cc2)c1	426 µM (≈ 125 µg/mL)
Cc1cc(Oc2ccc(-c3nc(N)nc(N)n3)cc2)cc(C)c1Cl	366 µM (≈ 125 µg/mL)
Cc1cc(Cl)ccc1Oc1ccc(-c2nc(N)nc(N)n2)cc1	381 µM (≈ 125 µg/mL)
CC(C)(C)c1ccc(Oc2ccc(-c3nc(N)nc(N)n3)cc2)cc1	373 µM (≈ 125 µg/mL)
Nc1nc(N)nc(-c2ccc(Oc3ccc(Br)cc3)cc2)n1	349 µM (≈ 125 µg/mL)
Nc1nc(N)nc(-c2ccc(Oc3ccc(Cl)cc3Cl)cc2)n1	359 µM (≈ 125 µg/mL)
Nc1nc(N)nc(-c2ccc(Oc3ccccc3Cl)cc2)n1	398 µM (≈ 125 µg/mL)

System: Mycobacterium tuberculosis
Experiment: microbe, parasite or virus in culture
Details: H37Rv, 48 h
Description: Antimycobacterium activity against Mycobacterium tuberculosis H37Rv after 48 hrs by Resazurin microtiter assay

SMILES	MIC
Cc1ccc(Oc2ccc(-c3nc(N)nc(N)n3)cc2)cc1	> 418 µM
Nc1nc(N)nc(-c2ccc(Oc3ccccc3)cc2)n1	110 µM (≈ 30.6 µg/mL)
Nc1nc(N)nc(-c2ccc(Sc3ccccc3)cc2)n1	212 µM (≈ 62.5 µg/mL)
Nc1nc(N)nc(-c2ccc(Oc3ccc(F)cc3)cc2)n1	> 420 µM
Nc1nc(N)nc(-c2ccc(Oc3ccc(Cl)cc3)cc2)n1	> 398 µM
Cc1cccc(C)c1Oc1ccc(-c2nc(N)nc(N)n2)cc1	20.3 µM (≈ 6.25 µg/mL)
Cc1cccc(Oc2ccc(-c3nc(N)nc(N)n3)cc2)c1C	0.325 µM (≈ 0.0999 µg/mL)
COc1ccc(Oc2ccc(-c3nc(N)nc(N)n3)cc2)cc1	> 396 µM
Cc1cc(Oc2ccc(-c3nc(N)nc(N)n3)cc2)ccc1Cl	> 381 µM
Cc1cccc(Oc2ccc(-c3nc(N)nc(N)n3)cc2)c1	> 447 µM
Cc1cc(Oc2ccc(-c3nc(N)nc(N)n3)cc2)cc(C)c1Cl	> 369 µM
Cc1cc(Cl)ccc1Oc1ccc(-c2nc(N)nc(N)n2)cc1	1.96 µM (≈ 0.642 µg/mL)
CC(C)(C)c1ccc(Oc2ccc(-c3nc(N)nc(N)n3)cc2)cc1	> 380 µM
Nc1nc(N)nc(-c2ccc(Oc3ccc(Br)cc3)cc2)n1	3.56 µM (≈ 1.28 µg/mL)
Nc1nc(N)nc(-c2ccc(Oc3ccc(Cl)cc3Cl)cc2)n1	3.59 µM (≈ 1.25 µg/mL)
Nc1nc(N)nc(-c2ccc(Oc3ccccc3Cl)cc2)n1	20.7 µM (≈ 6.5 µg/mL)
NNC(=O)c1ccncc1 [ISONIAZID]	0.73 µM (≈ 0.1 µg/mL)
CN(Cc1cnc2nc(N)nc(N)c2n1)c1ccc(C(=O)N[C@@H](CCC(=O)O)C(=O)O)cc1 [METHOTREXATE]	0.968 µM (≈ 0.44 µg/mL)
COc1cc(Cc2cnc(N)nc2N)cc(OC)c1OC [TRIMETHOPRIM]	28.9 µM (≈ 8.4 µg/mL)

System: HepG2
Experiment: Cytotoxicity against human HepG2 cells by SRB assay
Assay type: cell-based
Details: not given

SMILES	Activity
Cc1ccc(Oc2ccc(-c3nc(N)nc(N)n3)cc2)cc1	Non-toxic
Nc1nc(N)nc(-c2ccc(Oc3ccccc3)cc2)n1	Non-toxic
Nc1nc(N)nc(-c2ccc(Sc3ccccc3)cc2)n1	Non-toxic
Nc1nc(N)nc(-c2ccc(Oc3ccc(F)cc3)cc2)n1	Non-toxic
Nc1nc(N)nc(-c2ccc(Oc3ccc(Cl)cc3)cc2)n1	Non-toxic
Cc1cccc(C)c1Oc1ccc(-c2nc(N)nc(N)n2)cc1	Non-toxic
Cc1cccc(Oc2ccc(-c3nc(N)nc(N)n3)cc2)c1C	Non-toxic
COc1ccc(Oc2ccc(-c3nc(N)nc(N)n3)cc2)cc1	Non-toxic
Cc1cc(Oc2ccc(-c3nc(N)nc(N)n3)cc2)ccc1Cl	Non-toxic
Cc1cccc(Oc2ccc(-c3nc(N)nc(N)n3)cc2)c1	Non-toxic
Cc1cc(Oc2ccc(-c3nc(N)nc(N)n3)cc2)cc(C)c1Cl	Non-toxic
Cc1cc(Cl)ccc1Oc1ccc(-c2nc(N)nc(N)n2)cc1	Non-toxic
CC(C)(C)c1ccc(Oc2ccc(-c3nc(N)nc(N)n3)cc2)cc1	Non-toxic
Nc1nc(N)nc(-c2ccc(Oc3ccc(Br)cc3)cc2)n1	Non-toxic
Nc1nc(N)nc(-c2ccc(Oc3ccc(Cl)cc3Cl)cc2)n1	Non-toxic
Nc1nc(N)nc(-c2ccc(Oc3ccccc3Cl)cc2)n1	Non-toxic

Target: T2, Dihydrofolate reductase (Mycobacterium tuberculosis, UniProt P9WNX1)
T2 sequence (P9WNX1 whole entry): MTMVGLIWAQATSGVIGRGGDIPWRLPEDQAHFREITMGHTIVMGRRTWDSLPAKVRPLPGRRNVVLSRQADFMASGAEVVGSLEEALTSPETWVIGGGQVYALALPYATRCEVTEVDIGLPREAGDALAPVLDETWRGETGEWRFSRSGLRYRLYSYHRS
Experiment: Inhibition of recombinant Mycobacterium tuberculosis DHFR using 45 uM DHF as substrate by spectrophotometry
Details: not given

SMILES	pIC50
Cc1cccc(Oc2ccc(-c3nc(N)nc(N)n3)cc2)c1C	4.59
